In patent US20240270722A1, “POLO LIKE KINASE 4 INHIBITORS” (ORIC Pharmaceuticals, Inc., priority 2021, published 2024):

Key:
[1] = target: T1, human recombinant Aurora B (Homo sapiens, UniProt Q96GD4); assay: Aurora B Kinase Biochemical Assay (ADP-Glo); settings: selectivity ratio Aurora B vs PLK4
T1 construct: purchased ThermoFisher PR9210B
Method: Activity of human recombinant Aurora B (ThermoFisher, cat #PR9210B) was measured by quantification of adenosine diphosphate (ADP) using the ADP-Glo Kinase Assay Kit (Promega, cat #V9102). […] 5 μL of 20 nM Aurora B in assay buffer (50 mM HEPES, pH 7.5, 0.01% Brij-35, 0.01% BSA, 10 mM MgCl2, 1 mM EGTA, 1 mM DTT) was added to the plates. Test compounds and Aurora B were incubated for 15 minutes at room temperature (RT). […] Reactions were stopped and the remaining ATP depleted by adding 10 uL of ADP-Glo reagent (Promega, cat #V912B) and incubating for 40 minutes at RT. The simultaneous conversion of the remaining ADP to ATP and measurement of the newly synthesized ATP was achieved by addition of 20 μL Kinase Detection reagent (Promega, cat #V914B), incubation for 30 min at RT, and luminescence detection using the EnVision plate reader (PerkinElmer). […] The IC50 values reported in Table 2 were determined using four parameter non-linear regression curve fit.

[2] = target: T2, human recombinant Aurora A (Homo sapiens, UniProt O14965); assay: Aurora A Kinase Biochemical Assay (ADP-Glo); settings: selectivity ratio Aurora A vs PLK4
T2 construct: purchased ThermoFisher PR5935A
T2 sequence (O14965 1-403): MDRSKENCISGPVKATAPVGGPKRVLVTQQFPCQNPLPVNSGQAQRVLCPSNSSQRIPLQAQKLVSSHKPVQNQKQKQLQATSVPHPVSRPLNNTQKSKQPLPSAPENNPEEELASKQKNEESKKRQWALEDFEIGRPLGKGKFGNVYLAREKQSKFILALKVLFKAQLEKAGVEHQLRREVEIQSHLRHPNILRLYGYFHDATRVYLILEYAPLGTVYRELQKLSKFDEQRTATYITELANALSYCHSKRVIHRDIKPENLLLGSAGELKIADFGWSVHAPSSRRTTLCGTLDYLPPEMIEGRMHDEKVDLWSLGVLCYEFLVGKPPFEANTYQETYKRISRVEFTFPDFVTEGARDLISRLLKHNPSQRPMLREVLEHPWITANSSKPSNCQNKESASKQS
Method: Activity of human recombinant Aurora A (ThermoFisher, cat #PR5935A) was measured by quantification of adenosine diphosphate (ADP) using the ADP-Glo Kinase Assay Kit (Promega, cat #V9102). […] 5 μL of 5.0 nM Aurora A in assay buffer (50 mM HEPES, pH 7.5, 0.01% Brij-35, 0.01% BSA, 10 mM MgCl2, 1 mM EGTA, 1 mM DTT) was added to the plates. Test compounds and Aurora A were incubated for 15 minutes at room temperature (RT). […] Reactions were stopped and the remaining ATP depleted by adding 10 uL of ADP-Glo reagent (Promega, cat #V912B) and incubating for 40 minutes at RT. The simultaneous conversion of the remaining ADP to ATP and measurement of the newly synthesized ATP was achieved by addition of 20 μL Kinase Detection reagent (Promega, cat #V914B), incubation for 30 min at RT, and luminescence detection using the EnVision plate reader (PerkinElmer). […] The IC50 values reported in Table 2 were determined using four parameter non-linear regression curve fit.

[3] = target: T3, human recombinant PLK4 (Homo sapiens, UniProt O00444); assay: PLK4 Biochemical Assay (ADP-Glo)
T3 construct: purchased ThermoFisher 4PV6396
T3 sequence (O00444 1-970): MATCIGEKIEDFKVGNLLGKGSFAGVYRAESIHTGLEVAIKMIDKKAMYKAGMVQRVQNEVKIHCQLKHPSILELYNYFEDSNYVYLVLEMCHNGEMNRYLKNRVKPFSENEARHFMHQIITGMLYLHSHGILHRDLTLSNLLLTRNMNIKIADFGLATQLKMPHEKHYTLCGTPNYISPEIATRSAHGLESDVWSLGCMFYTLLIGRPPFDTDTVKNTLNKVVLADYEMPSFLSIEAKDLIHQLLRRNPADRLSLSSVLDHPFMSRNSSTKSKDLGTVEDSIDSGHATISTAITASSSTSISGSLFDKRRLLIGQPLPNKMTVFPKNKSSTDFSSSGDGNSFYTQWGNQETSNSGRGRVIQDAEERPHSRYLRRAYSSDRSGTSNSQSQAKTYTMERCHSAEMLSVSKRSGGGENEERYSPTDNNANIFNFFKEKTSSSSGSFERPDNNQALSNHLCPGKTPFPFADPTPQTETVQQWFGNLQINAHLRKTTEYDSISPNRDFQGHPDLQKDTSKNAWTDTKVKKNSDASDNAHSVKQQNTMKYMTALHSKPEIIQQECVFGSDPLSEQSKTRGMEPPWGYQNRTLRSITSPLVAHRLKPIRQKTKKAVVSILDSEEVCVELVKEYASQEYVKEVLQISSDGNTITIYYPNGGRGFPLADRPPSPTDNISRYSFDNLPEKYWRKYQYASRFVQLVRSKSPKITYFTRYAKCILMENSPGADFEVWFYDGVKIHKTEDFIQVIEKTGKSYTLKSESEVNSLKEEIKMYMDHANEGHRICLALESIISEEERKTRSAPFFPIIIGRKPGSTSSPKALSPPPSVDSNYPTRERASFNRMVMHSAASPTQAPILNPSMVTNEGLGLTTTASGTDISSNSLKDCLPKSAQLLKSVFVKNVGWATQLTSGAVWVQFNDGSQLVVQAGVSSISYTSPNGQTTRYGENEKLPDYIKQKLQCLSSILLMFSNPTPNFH
Method: 5 μL of 1.0 nM PLK4 protein in assay buffer (50 mM HEPES, pH 7.5, 0.01% Brij-35, 0.01% BSA, 10 mM MgCl2, 1 mM EGTA, 1 mM DTT) was added to the plates. Test compounds and PLK4 were incubated for 15 minutes at room temperature (RT). […] The IC50 values reported in Table 2 were determined using four parameter non-linear regression curve fit.

T1 sequence (Q96GD4 whole entry): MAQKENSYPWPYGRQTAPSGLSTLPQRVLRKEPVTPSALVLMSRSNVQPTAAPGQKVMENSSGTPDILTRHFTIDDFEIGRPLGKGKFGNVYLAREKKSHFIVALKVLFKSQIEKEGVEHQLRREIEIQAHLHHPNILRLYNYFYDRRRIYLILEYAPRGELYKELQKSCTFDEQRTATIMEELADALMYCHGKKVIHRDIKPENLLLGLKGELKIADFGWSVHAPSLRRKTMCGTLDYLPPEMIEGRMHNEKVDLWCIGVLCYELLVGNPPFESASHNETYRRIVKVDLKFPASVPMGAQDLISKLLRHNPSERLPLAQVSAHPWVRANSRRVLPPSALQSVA

Row | SMILES | [Aurora B IC50 (nM)]/[PLK4 IC50 (nM)] [1] | [Aurora A IC50 (nM)]/[PLK4 IC50 (nM)] [2] | IC50 [3]
1 | COc1ccc2c(c1)[C@]1(C[C@H]1c1ccc3c(Nc4nccc5c4OC[C@@H]5CO)n[nH]c3c1)C(=O)N2 (single isomer, unassigned) [Example 33] | 8.474 | 355.9465 | 
2 | COc1ccc2c(c1)[C@]1(C[C@H]1c1ccc3c(Nc4nccc5c4OC[C@H]5CO)n[nH]c3c1)C(=O)N2 (single isomer, unassigned) [Example 34] | 19.96 | 893.3126 | 
3 | COc1ccc2c(c1)[C@]1(C[C@H]1c1ccc3c(Nc4nn(C)cc4OC)n[nH]c3c1)C(=O)N2.O=C(O)C(F)(F)F [Example 79, (1R,2S)-5′-methoxy-2-{3-[(4-methoxy-1-methyl-1H-pyrazol-3-yl)amino]-1H-indazol-6-yl}spiro[cyclopropane-1,3′-indol]-2′(1′H)-one] | 6.986 | 210.5378 | 
4 | COc1ccc2c(c1)[C@]1(C[C@H]1c1ccc3c(Nc4ncnc(N5CCOCC5)c4OC(F)F)n[nH]c3c1)C(=O)N2 [Example 109, (1R,2S)-2-(3-{[5-(difluoromethoxy)-6-(morpholin-4-yl)pyrimidin-4-yl]amino}-1H-indazol-6-yl)-5′-methoxyspiro[cyclopropane-1,3′-indol]-2′(1′H)-one] |  | 50000 | 
5 | COc1cnc(C)nc1Nc1n[nH]c2cc([C@@H]3C[C@@]34C(=O)Nc3ccc(C(F)(F)F)cc34)ccc12 [Example 137, (1R,2S)-2-{3-[(5-methoxy-2-methylpyrimidin-4-yl)amino]-1H-indazol-6-yl}-5′-(trifluoromethyl)spiro[cyclopropane-1,3′-indol]-2′(1′H)-one] | 72 | 62 | 
6 | COc1cnc(C)nc1Nc1n[nH]c2cc([C@@H]3C[C@@]34C(=O)Nc3ccc(OC(F)(F)F)cc34)ccc12 [Example 138, (1R,2S)-2-{3-[(5-methoxy-2-methylpyrimidin-4-yl)amino]-1H-indazol-6-yl}-5′-(trifluoromethoxy)spiro[cyclopropane-1,3′-indol]-2′(1′H)-one] | 36 | 70 | 
7 | COc1cnc(C)nc1Nc1n[nH]c2cc([C@@H]3C[C@]34C(=O)Nc3ccc(OC(F)(F)F)cc34)ccc12 [Example 139, (1S,2S)-2-{3-[(5-methoxy-2-methylpyrimidin-4-yl)amino]-1H-indazol-6-yl}-5′-(trifluoromethoxy)spiro[cyclopropane-1,3′-indol]-2′(1′H)-one] | 9.6 | 7.4 | 
8 | COc1ccc2c(c1)[C@]1(C[C@H]1c1ccc3c(Nc4cc(OC)c(S(N)(=O)=O)cc4OC)n[nH]c3c1)C(=O)N2 [Example 212, 2,5-Dimethoxy-4-({6-[(1R,2S)-5′-methoxy-2′-oxo-1′,2′-dihydrospiro[cyclopropane-1,3′-indol]-2-yl]-1H-indazol-3-yl}amino)benzene-1-sulfonamide] | 280 |  | 
9 | COc1ccc2c(c1)[C@]1(C[C@H]1c1ccc3c(Nc4ncc(P(C)(C)=O)cc4OC)n[nH]c3c1)C(=O)N2 [Example 225, (1R,2S)-2-(3-{[5-(dimethylphosphoryl)-3-methoxypyridin-2-yl]amino}-1H-indazol-6-yl)-5′-methoxyspiro[cyclopropane-1,3′-indol]-2′(1′H)-one] | 381.4972 | 1884.6028 | 6.12 nM
10 | CCOc1cc(S(=O)(=O)NC)cnc1Nc1n[nH]c2cc([C@@H]3C[C@@]34C(=O)Nc3ccc(OC)cc34)ccc12 [Example 275, 5-ethoxy-6-({6-[(1R,2S)-5′-methoxy-2′-oxo-1′,2′-dihydrospiro[cyclopropane-1,3′-indol]-2-yl]-1H-indazol-3-yl}amino)-N-methylpyridine-3-sulfonamide] | 230 |  | 
